Patent US20200297847A1, “Pharmaceutical Composition For Treating Obesity Induced By High Fat Diet And Non-Alcoholic Fatty Liver Disease By Using Trisodium Chlorin E6 Photosensitizer” (DONG SUNG PHARM. CO., LTD., priority 2017, published 2020)

Tests used:
high-fat diet mice [1] = assay: anti-obesity experiment (PDT, body weight of mice fed with high-fat diet); type: in vivo, C57 Black mice; settings: group 5: HFD + 2.5 mg/kg intraperitoneally + high-level LED irradiation (4.96 mW/cm^2, 10 min, 2.98 J/cm^2); compared with group 4 (low-level LED) and group 1 (HFD); FIG. 2
Experimental: (§1) 6-week-old C57 Black mice were purchased and were fed with normal diet for a week of environmental adaptation.
(§2) After feeding with normal diet for a week, these mice were randomly divided into 7 groups and tested. The body weight thereof was measured periodically (three times per week), and an anti-obesity experiment was conducted when the body weight was about 20% more than the initial body weight. The anti-obesity experiment was as follows.
For group 1, only high-fat diet (HFD) was provided and the body weight was periodically measured (HFD).
For group 2, only high-fat diet (HFD) was provided and the body weight was periodically measured, and the mice were placed in an LED-illuminated cage when the body weight thereof was about 20% or more than the initial body weight, followed by irradiation with low-level LED light.
For group 3, only high-fat diet (HFD) was provided and the body weight was periodically measured, and the mice were placed in an LED-illuminated cage when the body weight thereof was about 20% or more than the initial body weight, followed by irradiation with high-level LED light.
For group 4, only high-fat diet (HFD) was provided and the body weight was periodically measured, and when the body weight was about 20% or more than the initial body weight, trisodium Chlorin e6 (2.5 mg/kg) was dissolved in 200 μl of a saline solution and administered intraperitoneally. […]

high-fat diet mice [2] = assay: lipid production and examination of non-alcoholic steatohepatitis (morphological examination of liver); type: in vivo, C57 Black mice; settings: FIG. 3
Experimental: as §1, §2
For group 4, only high-fat diet (HFD) was provided and the body weight was periodically measured, and when the body weight was about 20% or more than the initial body weight, trisodium Chlorin e6 (2.5 mg/kg) was dissolved in 200 μl of a saline solution and administered intraperitoneally. After intraperitoneal administration thereof, the mice were allowed to adapt to a dark room for 3 hr and then placed in an LED-illuminated cage, followed by irradiation with low-level LED light.
For group 5, only high-fat diet (HFD) was provided and the body weight was periodically measured, and when the body weight was about 20% or more than the initial body weight, trisodium Chlorin e6 (2.5 mg/kg) was dissolved in 200 μl of a saline solution and administered intraperitoneally. […]

mice = assay: toxicity detection (shape of whole body and internal organs after dissection); type: in vivo
Experimental: The mice treated with Chlorin e6 were tested for potential toxicity by observing the shape of the internal organs through dissection after killing.
The main concern in the development of medicaments or therapies is safety, and the safe use of medicaments means to effectively treat the disease with minimal or no toxicity in the body or parts of the body. Therefore, in the present experiment, the toxic effects of drugs and LED irradiation were examined. After the mice were dissected, the whole body and internal organs were examined in order to verify toxicity. […] It was observed that the liver was normal other than the fatty liver observed in the groups treated with HFD alone and LED alone (FIG. 6).

trisodium Chlorin e6
weight loss / reduction of percentage of weight gain (high-fat diet mice [1]): the most effective group | non-alcoholic steatohepatitis (NASH) (high-fat diet mice [2]; group 4: HFD + 2.5 mg/kg intraperitoneally + low-level LED irradiation (2.56 mW/cm^2, 5 min, 0.77 J/cm^2)): alleviated | non-alcoholic steatohepatitis (NASH) (high-fat diet mice [2]; group 5: HFD + 2.5 mg/kg intraperitoneally + high-level LED irradiation): alleviated | toxicity during treatment (mice; Chlorin e6 and LED irradiation in mice): Toxicity was not observed | internal organs after dissection (mice; mouse, in vivo): no bleeding, color change or gangrene in the intestines was observed
